Laboratory results reported in US20240217989A1, “Heteroaryl Fluoroalkenes As DGK Inhibitors” (Incyte Corporation, priority 2022, published 2024).

What was measured:
[1] = target: T1, DGKα (Homo sapiens, UniProt P23743); test: In vitro DGKα inhibition assay (ADP-Glo); format: biochemical; details: His-tagged human recombinant enzyme; 0.1 nM DGKα, 50 μM ATP, 20 μM DLG; 90 minute incubation; ADP-Glo luminescence
T1 construct: His; purchased Signal Chem D21-10BH
Description: (§1) The DGKα and DGKζ biochemical reactions were performed using His-tagged human recombinant enzymes (Signal Chem, DGKα, #D21-10BH; DGKζ, #D30-10H)) and DLG (Dilauroyl-sn-glycerol) lipid substrate (Signal Chem, #D430-59). ADP-Glo assay was performed using ADP-Glo™ kinase Assay kit (Promega, #V9104). The reactions were carried out in assay buffer containing 40 mM Tris, pH 7.5, 0.1% CHAPS, 0.1% Prionex, 40 mM NaCl, 5 mM MgCl2, 1 mM CaCl2, and 1 mM DTT. DGKα reactions contained 0.1 nM DGKα, 50 μM ATP, and 20 μM DLG. And DGKζ reactions contained 0.4 nM DGKζ, 30 μM ATP, and 20 μM DLG. For compound inhibition studies, 40 nL test compound in DMSO was added to wells of white polystyrene plates in 384-well (Greiner, #784075) or 1536-well format (Greiner, #782075). Compounds were added with top concentration of 2 mM with 11 point, 3-fold dilution series. Enzyme solution (contains 2× DGK enzyme concentration in 1× assay buffer) was added to the plate in 2 μL/well volume, followed by 2 μL/well of substrate solution (contains 2× concentration of ATP and DLG substrate in 1× assay buffer). Plates were then centrifuged for 1 min at 1200 RPM and sealed or lidded. For 4 μL reaction volume, test compounds were therefore diluted 100× to final top concentration of 20 μM. After 90 minute incubation, reactions were quenched by addition of 2 μL/well Promega ADP-Glo Reagent, followed by centrifugation and lidding. After 60 min incubation, 2 μL/well Promega Kinase Detection Reagent was added, plates centrifuged, and incubated for 30 min. Plates were then read using Luminescence method on BMG PHERAstar FSX plate reader. Percent inhibition was calculated and IC50s were determined using 4-parameter fit in Genedata Screener. Labcyte Echo acoustic dispenser was used for compound addition, and Formulatrix Tempest liquid handler was used for all reagent dispenses.

[2] = target: DGKζ (Homo sapiens, UniProt Q13574); test: In vitro DGKζ inhibition assay (ADP-Glo); format: biochemical; details: His-tagged human recombinant enzyme; 0.4 nM DGKζ, 30 μM ATP, 20 μM DLG; 90 minute incubation; ADP-Glo luminescence
Chain of DGKζ (Q13574 whole entry): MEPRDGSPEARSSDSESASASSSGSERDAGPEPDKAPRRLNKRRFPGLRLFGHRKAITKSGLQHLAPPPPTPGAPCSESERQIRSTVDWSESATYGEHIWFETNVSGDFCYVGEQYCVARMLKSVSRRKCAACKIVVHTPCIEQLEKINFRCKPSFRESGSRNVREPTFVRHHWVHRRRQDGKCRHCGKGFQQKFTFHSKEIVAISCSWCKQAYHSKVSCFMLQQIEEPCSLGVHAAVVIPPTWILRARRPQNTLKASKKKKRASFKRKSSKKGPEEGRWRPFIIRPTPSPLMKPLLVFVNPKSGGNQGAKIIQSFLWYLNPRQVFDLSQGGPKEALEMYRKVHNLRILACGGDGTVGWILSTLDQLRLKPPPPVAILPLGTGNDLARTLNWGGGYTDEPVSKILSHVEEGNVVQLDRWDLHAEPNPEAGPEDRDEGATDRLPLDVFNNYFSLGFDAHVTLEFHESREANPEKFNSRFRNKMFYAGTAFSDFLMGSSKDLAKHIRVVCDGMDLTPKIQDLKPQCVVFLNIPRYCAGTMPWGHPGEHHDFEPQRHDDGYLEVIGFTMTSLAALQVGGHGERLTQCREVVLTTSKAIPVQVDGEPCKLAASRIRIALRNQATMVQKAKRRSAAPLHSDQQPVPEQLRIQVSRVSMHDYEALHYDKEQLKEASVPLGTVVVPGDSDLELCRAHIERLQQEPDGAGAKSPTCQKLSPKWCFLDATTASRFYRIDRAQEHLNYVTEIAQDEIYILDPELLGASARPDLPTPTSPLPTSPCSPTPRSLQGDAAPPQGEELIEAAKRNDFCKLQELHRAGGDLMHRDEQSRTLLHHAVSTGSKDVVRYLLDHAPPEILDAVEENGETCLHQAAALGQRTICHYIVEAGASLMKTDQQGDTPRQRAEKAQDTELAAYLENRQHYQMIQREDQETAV
Description: as §1

T1 sequence (P23743 whole entry): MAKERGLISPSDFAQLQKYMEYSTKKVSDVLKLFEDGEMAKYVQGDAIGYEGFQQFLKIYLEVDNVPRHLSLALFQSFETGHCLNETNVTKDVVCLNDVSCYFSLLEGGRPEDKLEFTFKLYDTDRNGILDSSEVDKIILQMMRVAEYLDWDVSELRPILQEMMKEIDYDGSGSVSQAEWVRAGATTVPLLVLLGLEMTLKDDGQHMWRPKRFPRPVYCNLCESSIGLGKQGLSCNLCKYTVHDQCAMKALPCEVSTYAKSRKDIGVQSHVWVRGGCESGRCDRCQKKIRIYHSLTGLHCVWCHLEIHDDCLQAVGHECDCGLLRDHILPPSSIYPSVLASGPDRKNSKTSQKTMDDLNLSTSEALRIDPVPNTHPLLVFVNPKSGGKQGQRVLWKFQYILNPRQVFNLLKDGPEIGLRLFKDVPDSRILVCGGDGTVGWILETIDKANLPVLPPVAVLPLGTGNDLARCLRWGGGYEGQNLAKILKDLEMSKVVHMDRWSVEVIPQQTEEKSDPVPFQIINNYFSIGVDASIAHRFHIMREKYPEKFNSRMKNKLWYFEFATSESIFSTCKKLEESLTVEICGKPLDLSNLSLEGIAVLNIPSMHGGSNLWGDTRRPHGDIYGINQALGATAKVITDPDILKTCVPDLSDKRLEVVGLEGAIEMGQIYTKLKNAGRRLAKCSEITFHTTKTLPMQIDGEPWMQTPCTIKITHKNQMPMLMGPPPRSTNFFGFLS

IC50 [1] [nM] | IC50 [2] [nM] | Structure (SMILES)
≤ 20 | ≤ 20 | F/C(=C\c1ccc(Oc2ccccc2)c(C(F)(F)F)c1N1CCCC2(CCN(C3CCC3)CC2)C1)c1nccc(-c2ccnnc2)n1 [Example 30, (Z)-9-Cyclobutyl-2-(6-(2-fluoro-2-(4-(pyridazin-4-yl)pyrimidin-2-yl)vinyl)-3-phenoxy-2-(trifluoromethyl)phenyl)-2,9-diazaspiro[5.5]undecane]
≤ 20 | ≤ 20 | COCCN1CCC2(CC1)CN(c1c(/C=C(\F)c3cccc(-c4ccnnc4)n3)ccc(Oc3ccccc3)c1C(F)(F)F)CCO2 [Example 26, (Z)-4-(6-(2-Fluoro-2-(6-(pyridazin-4-yl)pyridin-2-yl)vinyl)-3-phenoxy-2-(trifluoromethyl)phenyl)-9-(2-methoxyethyl)-1-oxa-4,9-diazaspiro[5.5]undecane]
 | ≤ 20 | NC[C@@H]1CCCN(c2c(/C=C(\F)c3cncc(-c4ccns4)n3)ccc(Oc3ccccc3F)c2C(F)(F)F)C1 [Example 4, (S,Z)-(1-(6-(2-Fluoro-2-(6-(isothiazol-5-yl)pyrazin-2-yl)vinyl)-3-(2-fluorophenoxy)-2-(trifluoromethyl)phenyl)piperidin-3-yl)methanamine]
20 to 200 | ≤ 20 | CCN1CCC2(CCCN(c3c(/C=C(\F)c4cncc(N5CC(F)(F)C5)n4)ccc(Oc4ccccc4)c3C(F)(F)F)C2)CC1 [Example 16, (Z)-2-(6-(2-(6-(3,3-Difluoroazetidin-1-yl)pyrazin-2-yl)-2-fluorovinyl)-3-phenoxy-2-(trifluoromethyl)phenyl)-9-ethyl-2,9-diazaspiro[5.5]undecane]
≤ 20 | ≤ 20 | COCCN1CCC2(CCCN(c3c(/C=C(\F)c4nccc(-c5ccnnc5)n4)ccc(Oc4ccccc4)c3C(F)(F)F)C2)CC1 [Example 31, (Z)-2-(6-(2-Fluoro-2-(4-(pyridazin-4-yl)pyrimidin-2-yl)vinyl)-3-phenoxy-2-(trifluoromethyl)phenyl)-9-(2-methoxyethyl)-2,9-diazaspiro[5.5]undecane]
≤ 20 | ≤ 20 | NC[C@@H]1CCCN(c2c(/C=C(\F)c3cn4ccnc4c(N4CC(F)(F)C4)n3)ccc(Oc3ccccc3F)c2C(F)(F)F)C1 [Example 2, (S,Z)-(1-(6-(2-(8-(3,3-Difluoroazetidin-1-yl)imidazo[1,2-a]pyrazin-6-yl)-2-fluorovinyl)-3-(2-fluorophenoxy)-2-(trifluoromethyl)phenyl)piperidin-3-yl)methanamine]
20 to 200 | 20 to 200 | CCN1CCC2(CC1)CN(c1c(/C=C(\F)c3cncc(-c4ccnnc4)n3)ccc(OC3CC3)c1C(F)(F)F)CCO2 [Example 14, (Z)-4-(3-Cyclopropoxy-6-(2-fluoro-2-(6-(pyridazin-4-yl)pyrazin-2-yl)vinyl)-2-(trifluoromethyl)phenyl)-9-ethyl-1-oxa-4,9-diazaspiro[5.5]undecane]
 | ≤ 20 | NC[C@H]1CCCN1c1c(/C=C(\F)c2cncc(-c3ccnnc3)n2)ccc(Oc2ccccc2)c1Cl [Example 12, (R,Z)-(1-(2-Chloro-6-(2-fluoro-2-(6-(pyridazin-4-yl)pyrazin-2-yl)vinyl)-3-phenoxyphenyl)pyrrolidin-2-yl)methanamine]
≤ 20 | ≤ 20 | CCN1CCC2(CCCN(c3c(/C=C(\F)c4nccc(-c5ccnnc5)n4)ccc(Oc4ncccc4F)c3C(F)(F)F)C2)CC1 [Example 32, (Z)-9-Ethyl-2-(6-(2-fluoro-2-(4-(pyridazin-4-yl)pyrimidin-2-yl)vinyl)-3-((3-fluoropyridin-2-yl)oxy)-2-(trifluoromethyl)phenyl)-2,9-diazaspiro[5.5]undecane]
≤ 20 | ≤ 20 | CCN1CCC2(CCCN(c3c(/C=C(\F)c4nccc(-c5ccnnc5)n4)ccc(OC4CCCC4)c3C(F)(F)F)C2)CC1 [Example 53, (Z)-2-(3-(Cyclopentyloxy)-6-(2-fluoro-2-(4-(pyridazin-4-yl)pyrimidin-2-yl)vinyl)-2-(trifluoromethyl)phenyl)-9-ethyl-2,9-diazaspiro[5.5]undecane]
≤ 20 | ≤ 20 | CCN1CCC2(CCCN(c3c(/C=C(\F)c4cccc(-c5ccnnc5)n4)ccc(Oc4ncccc4F)c3C(F)(F)F)C2)CC1 [Example 33, (Z)-9-Ethyl-2-(6-(2-fluoro-2-(6-(pyridazin-4-yl)pyridin-2-yl)vinyl)-3-((3-fluoropyridin-2-yl)oxy)-2-(trifluoromethyl)phenyl)-2,9-diazaspiro[5.5]undecane]
≤ 20 | ≤ 20 | [2H]c1c([2H])c([2H])c(Oc2ccc(/C=C(\F)c3cncc(N4CCC(F)(F)C4)n3)c(N3CCCC4(CCN(CC)CC4)C3)c2C(F)(F)F)c([2H])c1[2H] [Example 22, (Z)-2-(6-(2-(6-(3,3-Difluoropyrrolidin-1-yl)pyrazin-2-yl)-2-fluorovinyl)-3-(phenoxy-d5)-2-(trifluoromethyl)phenyl)-9-ethyl-2,9-diazaspiro[5.5]undecane]
≤ 20 | ≤ 20 | F/C(=C\c1ccc(Oc2ccccc2F)c(C(F)(F)F)c1N1CCOC2(CCN(CC3CC3)CC2)C1)c1nccc(-c2ccnnc2)n1 [Example 42, (Z)-9-(Cyclopropylmethyl)-4-(6-(2-fluoro-2-(4-(pyridazin-4-yl)pyrimidin-2-yl)vinyl)-3-(2-fluorophenoxy)-2-(trifluoromethyl)phenyl)-1-oxa-4,9-diazaspiro[5.5]undecane]
≤ 20 | ≤ 20 | CCN1CCC2(CCCN(c3c(/C=C(\F)c4cncc(N5CCC(F)(F)C5)n4)ccc(Oc4ccccc4F)c3C(F)(F)F)C2)CC1 [Example 58, (Z)-2-(6-(2-(6-(3,3-Difluoropyrrolidin-1-yl)pyrazin-2-yl)-2-fluorovinyl)-3-(2-fluorophenoxy)-2-(trifluoromethyl)phenyl)-9-ethyl-2,9-diazaspiro[5.5]undecane]
≤ 20 | ≤ 20 | F/C(=C\c1ccc(Oc2ccccc2)c(C(F)(F)F)c1N1CCCC2(CCN(CC3CC3)CC2)C1)c1cncc(N2CC(F)(F)C2)n1 [Example 15, (Z)-9-(Cyclopropylmethyl)-2-(6-(2-(6-(3,3-difluoroazetidin-1-yl)pyrazin-2-yl)-2-fluorovinyl)-3-phenoxy-2-(trifluoromethyl)phenyl)-2,9-diazaspiro[5.5]undecane]
≤ 20 | ≤ 20 | F/C(=C\c1ccc(Oc2ccccc2F)c(C(F)(F)F)c1N1CCCC2(CCN(CC3CC3)CC2)C1)c1nccc(-c2ccnnc2)n1 [Example 39, (Z)-9-(Cyclopropylmethyl)-2-(6-(2-fluoro-2-(4-(pyridazin-4-yl)pyrimidin-2-yl)vinyl)-3-(2-fluorophenoxy)-2-(trifluoromethyl)phenyl)-2,9-diazaspiro[5.5]undecane]
≤ 20 | ≤ 20 | F/C(=C\c1ccc(Oc2cccc(F)c2F)c(C(F)(F)F)c1N1CCCC2(CCN(CC3CC3)CC2)C1)c1cncc(-c2cnsc2)n1 [Example 47, (Z)-4-(6-(2-(2-(9-(Cyclopropylmethyl)-2,9-diazaspiro[5.5]undecan-2-yl)-4-(2,3-difluorophenoxy)-3-(trifluoromethyl)phenyl)-1-fluorovinyl)pyrazin-2-yl)isothiazole]
≤ 20 | ≤ 20 | CCN1CCC2(CCCN(c3c(/C=C(\F)c4nccc(-c5ccnnc5)n4)ccc(Oc4ccccc4F)c3C(F)(F)F)C2)CC1 [Example 40, (Z)-9-Ethyl-2-(6-(2-fluoro-2-(4-(pyridazin-4-yl)pyrimidin-2-yl)vinyl)-3-(2-fluorophenoxy)-2-(trifluoromethyl)phenyl)-2,9-diazaspiro[5.5]undecane]
≤ 20 | ≤ 20 | CCN1CCC2(CC1)CN(c1c(/C=C(\F)c3nccc(-c4ccnnc4)n3)ccc(Oc3ccccc3)c1C(F)(F)F)CCO2 [Example 24, (Z)-9-Ethyl-4-(6-(2-fluoro-2-(4-(pyridazin-4-yl)pyrimidin-2-yl)vinyl)-3-phenoxy-2-(trifluoromethyl)phenyl)-1-oxa-4,9-diazaspiro[5.5]undecane]
≤ 20 | ≤ 20 | F/C(=C\c1ccc(Oc2ccccc2F)c(C(F)(F)F)c1N1CCCC2(CCN(CC3CC3)CC2)C1)c1cncc(N2CC(F)(F)C2)n1 [Example 57, (Z)-9-(Cyclopropylmethyl)-2-(6-(2-(6-(3,3-difluoroazetidin-1-yl)pyrazin-2-yl)-2-fluorovinyl)-3-(2-fluorophenoxy)-2-(trifluoromethyl)phenyl)-2,9-diazaspiro[5.5]undecane]
